Reference: patent US8158667B2, “Topical treatment of cataracts in dogs” (priority 2006, dated 2012)

What was measured:
accumulation of sorbitol = details: fold more effective than sorbinil; '704 patent; cited from earlier work
aldose reductase = aldose reductase (Homo sapiens, UniProt P15121); details: '704 patent; cited from earlier work
[1] = systemic half-life in dogs; details: dog, in vivo
Excerpt: Topical administration of the ARI 2R,4S-6-fluoro-2-methyl-spiro[chroman-4,4′-imidazolidine]-2′,5′-dione (2-MS) is the preferred method for preventing cataracts and ocular complications in diabetic dogs and cats. As a result of the short, 3 hr systemic half-life of 2-MS in dogs and subsequent studies conducted in galactose-fed dogs, it is estimated that, at minimum, a multiple 4-times/day oral dose is required for efficacy. Topical application permits a lower dosage and a lower frequency of administration. Topical application will also minimize the tendency of diabetic dogs to have their liver functions compromised because topical administration will bypass first pass liver metabolism. The topical treatment of the present invention will not only arrest the progression of sugar cataracts, but also reduces the density of early cortical cataracts. […] The topical treatment should also delay the formation of other ocular diabetes associated complications associated with aldose reductase, as summarized above.

[2] = stability of 2R-MS in carbomer gel emulsion; format: physicochemical; details: room temperature
Description: To maximize the topical administration of 2R-MS, vehicles or carriers of different viscosities comprised of polymers, gums, or viscosity enhancers were prepared. Formulations containing 3% of the AR inhibitor 2R-MS were prepared using the five different vehicles, which included 0.5% hydroxypropyl methylcellulose (HPMC); 0.5% xanthan gum; 0.5% gellan gum; 0.25% carbopol; and 0.25% carbopol (0.25% w/v)+0.25% HPMC. All were prepared in modified Sorensen's Phosphate Buffer, pH of 7.4. The drug and each vehicle were suspended directly in a sterile eye drop bottle by vortexing vigorously for at least one minute. […] All suspensions were vortexed prior to topical administration. An additional topical carbomer gel formulation consisting of 2.5% water soluble high molecular weight polymer of acrylic acid cross-linked with a polyether of sucrose was also developed. Carbomers are widely used in products for the treatment of dry eye. Crystalline 2R-MS was ground into a fine powder and mixed into an emulsion according to standard techniques.

| half-life [1] | Compound | effectiveness in preventing the accumulation of sorbitol relative to sorbinil (accumulation of sorbitol) | inhibiting aldose reductase, compared with sorbinil (aldose reductase) | stability in the emulsion [2] |
| --- | --- | --- | --- | --- |
| – | CC1CC2(NC(=O)NC2=O)c2cc(F)ccc2O1 (stereo not shown) [2-methyl sorbinil, 6-fluoro-2-methyl-spiro-[chroman-4,4′-imidazolidine]-2′,5′-dione] | 2-10 times | more effective in inhibiting aldose reductase | – |
| 3 h | C[C@@H]1C[C@]2(NC(=O)NC2=O)c2cc(F)ccc2O1 [2R-MS, 2R,4S-6-fluoro-2-methyl-spiro[chroman-4,4′-imidazolidine]-2′,5′-dione] | – | – | stable in the emulsion for a minimum of ten months |
